Results reported in patent US4582934A, “Alpha,alpha-dimethylphenylacetanilide derivatives, process for production thereof, and use thereof as insecticide” (Yashima Chemical Industrial Co., Ltd., priority 1983, dated 1986).
Values after ≈ are worked out from the molar mass of the structure shown. Where two headings read alike, the source gives them in different places.

Assays:
Assay type in all cases: in vivo
[1] = system: Sensitive Plutella xylostella; assay: Indoor test on 3rd-instar larvae of Plutella xylostella, sensitive insects (cabbage leaf dip); conditions: foliar, read-out: LC50 (50% lethal concentration)
Experimental: (§1) Indoor test on 3rd-instar larvae of Plutella xylostella:
(§2) A wettable powder prepared as in Formulation Example 2 was diluted to a predetermined concentration. Cabbage leaves were dipped for 10 seconds in the resulting dilution and then air dried. The leaves were put into a polyvinyl chloride cup having a capacity of 90 ml together with 3rd-instar larvae of Plutella xylostella. The cup was left to stand in a constant temperature chamber kept at 25° C., and 72 hours later, the number of dead insects was examined. For each test area, the test was repeated twice, and 20 insects were used in each area. The ratio of the dead insects was calculated, and LC50 (50% lethal concentration) values of the test compounds were determined by the method of Bliss.
(§3) The sensitive Plutella xylostella insects in the table were those bred through generations at the Laboratory of Yashima Chemical Industrial Co., Ltd. The resistant ones were hunted at Tsumakoi-mura, Gunma-ken, Japan.

[2] = system: Resistant Plutella xylostella; assay: Indoor test on 3rd-instar larvae of Plutella xylostella, resistant insects (cabbage leaf dip); conditions: foliar, read-out: LC50 (50% lethal concentration)
Experimental: as §1, §2, §3

[3] = system: Resistant Plutella xylostella; assay: Field test on Plutella xylostella (cabbage, spray); conditions: larvae per 10 heads of cabbage, not sprayed = 100
Experimental: Field test on Plutella xylostella:
On predetermined dates, the number of larvae per 10 heads of cabbage was examined, and the corrected density indices of the test compounds were calculated in accordance with the following equation. [formula]

[4] = system: Thrips palmi; assay: Test on Thrips palmi (potted eggplants, spray); conditions: eggplants in pots, not sprayed = 100
Experimental: An emulsifiable emulsion prepared as in Formulation Example 3 was diluted with water to a predetermined concentration. The dilution was sprayed on eggplants which were grown in pots and on which Thrips palmi was parasitic, so that the dilution fully dripped on the plant leaves. The number of dead insects was examined at predetermined dates, and the corrected density indices of the test compounds were calculated. For each area, the test was repeated three times.

COP(=O)(NC(C)=O)SC (centres unmarked) [Acephate, O,S--dimethyl N--acetylphosphoramidothiolate, reference compound]
LC50 ([1]; Plutella xylostella, 72 h): 178 µg/mL (≈ 972 µM) | LC50 ([2]; Plutella xylostella, 72 h): 878 µg/mL (≈ 4790 µM) | Corrected density index After 3 days ([3]; 500 ppm): 8 | Corrected density index After 7 days ([3]; 500 ppm): 12 | Corrected density index After 14 days ([3]; 500 ppm): 15

CCC(C)c1ccccc1OC(=O)NC (centres unmarked) [BPMC, 2sec. butylphenylN--methyl carbamate, reference compound]
Corrected density index After 1 day ([4]; 250 ppm): 7 | Corrected density index After 3 days ([4]; 250 ppm): 35 | Corrected density index After 7 days ([4]; 250 ppm): 57 | Corrected density index After 1 day ([4]; 500 ppm): 2 | Corrected density index After 3 days ([4]; 500 ppm): 15 | Corrected density index After 7 days ([4]; 500 ppm): 45

CC(C)(C(=O)Nc1ccc(Br)cc1)c1ccc(Cl)cc1 [Compound No. 3]
LC50 ([1]; Plutella xylostella, 72 h): 57 µg/mL (≈ 162 µM) | LC50 ([2]; Plutella xylostella, 72 h): 51 µg/mL (≈ 145 µM) | Corrected density index After 3 days ([3]; 250 ppm): 7 | Corrected density index After 7 days ([3]; 250 ppm): 2 | Corrected density index After 14 days ([3]; 250 ppm): 3 | Corrected density index After 1 day ([4]; 250 ppm): 16 | Corrected density index After 3 days ([4]; 250 ppm): 8 | Corrected density index After 7 days ([4]; 250 ppm): 14 | Corrected density index After 1 day ([4]; 500 ppm): 9 | Corrected density index After 3 days ([4]; 500 ppm): 3 | Corrected density index After 7 days ([4]; 500 ppm): 3

CC(C)(C(=O)Nc1ccc(C(F)(F)F)cc1)c1ccc(Cl)cc1 [Compound No. 4]
LC50 ([1]; Plutella xylostella, 72 h): 95 µg/mL (≈ 278 µM) | LC50 ([2]; Plutella xylostella, 72 h): 96 µg/mL (≈ 281 µM) | Corrected density index After 3 days ([3]; 250 ppm): 7 | Corrected density index After 7 days ([3]; 250 ppm): 1 | Corrected density index After 14 days ([3]; 250 ppm): 0 | Corrected density index After 1 day ([4]; 250 ppm): 19 | Corrected density index After 3 days ([4]; 250 ppm): 8 | Corrected density index After 7 days ([4]; 250 ppm): 11 | Corrected density index After 1 day ([4]; 500 ppm): 12 | Corrected density index After 3 days ([4]; 500 ppm): 4 | Corrected density index After 7 days ([4]; 500 ppm): 6

CCN(C(=O)C(C)(C)c1ccc(Cl)cc1)c1ccc(Cl)cc1 [Compound No. 7]
LC50 ([1]; Plutella xylostella, 72 h): 51 µg/mL (≈ 152 µM) | LC50 ([2]; Plutella xylostella, 72 h): 53 µg/mL (≈ 158 µM) | Corrected density index After 3 days ([3]; 250 ppm): 4 | Corrected density index After 7 days ([3]; 250 ppm): 0 | Corrected density index After 14 days ([3]; 250 ppm): 0 | Corrected density index After 1 day ([4]; 250 ppm): 16 | Corrected density index After 3 days ([4]; 250 ppm): 9 | Corrected density index After 7 days ([4]; 250 ppm): 13 | Corrected density index After 1 day ([4]; 500 ppm): 10 | Corrected density index After 3 days ([4]; 500 ppm): 2 | Corrected density index After 7 days ([4]; 500 ppm): 3

COP(=O)(OC)OC=C(Cl)Cl [DDVP, 2,2-dichlorovinyl dimethyl phosphate, reference compound]
LC50 ([1]; sensitive Plutella xylostella, 3rd-instar larvae, 72 hours, 25° C., wettable powder dilution, method of Bliss): 103 µg/mL | LC50 ([2]; resistant Plutella xylostella, 3rd-instar larvae, 72 hours, 25° C., wettable powder dilution, method of Bliss): 1020 µg/mL | Corrected density index After 3 days ([3]; 500 ppm): 15 | Corrected density index After 7 days ([3]; 500 ppm): 52 | Corrected density index After 14 days ([3]; 500 ppm): 86

CC(C)(C(=O)Nc1ccc(F)cc1)c1ccc(Cl)cc1 [compound 1]
LC50 ([1]; Plutella xylostella, 72 h): 126 µg/mL (≈ 432 µM) | LC50 ([2]; Plutella xylostella, 72 h): 123 µg/mL (≈ 422 µM)

CC(C)(C(=O)Nc1ccc(Cl)cc1)c1ccc(Cl)cc1 [compound 2, alpha,alpha-dimethyl-p-chlorophenylaceto-p-chloranilide]
LC50 ([1]; Plutella xylostella, 72 h): 101 µg/mL (≈ 328 µM) | LC50 ([2]; Plutella xylostella, 72 h): 110 µg/mL (≈ 357 µM) | Corrected density index After 3 days ([3]; 250 ppm): 10 | Corrected density index After 7 days ([3]; 250 ppm): 5 | Corrected density index After 14 days ([3]; 250 ppm): 2 | Corrected density index After 1 day ([4]; 250 ppm): 16 | Corrected density index After 3 days ([4]; 250 ppm): 14 | Corrected density index After 7 days ([4]; 250 ppm): 14 | Corrected density index After 1 day ([4]; 500 ppm): 20 | Corrected density index After 3 days ([4]; 500 ppm): 10 | Corrected density index After 7 days ([4]; 500 ppm): 12

CC(C)(C(=O)Nc1ccc(C#N)cc1)c1ccc(Cl)cc1 [compound 5]
LC50 ([1]; Plutella xylostella, 72 h): 97 µg/mL (≈ 325 µM) | LC50 ([2]; Plutella xylostella, 72 h): 90 µg/mL (≈ 301 µM)

CN(C(=O)C(C)(C)c1ccc(Cl)cc1)c1ccc(Cl)cc1 [compound 6]
LC50 ([1]; Plutella xylostella, 72 h): 61 µg/mL (≈ 189 µM) | LC50 ([2]; Plutella xylostella, 72 h): 60 µg/mL (≈ 186 µM)

CCCN(C(=O)C(C)(C)c1ccc(Cl)cc1)c1ccc(Cl)cc1 [compound 8]
LC50 ([1]; Plutella xylostella, 72 h): 198 µg/mL (≈ 565 µM) | LC50 ([2]; Plutella xylostella, 72 h): 204 µg/mL (≈ 582 µM)

CCCCN(C(=O)C(C)(C)c1ccc(Cl)cc1)c1ccc(Cl)cc1 [compound 9]
LC50 ([1]; Plutella xylostella, 72 h): 372 µg/mL (≈ 1020 µM) | LC50 ([2]; Plutella xylostella, 72 h): 365 µg/mL (≈ 1000 µM)

CCN(C(=O)C(C)(C)c1ccc(Cl)cc1)c1ccc(Br)cc1 [compound 10, alpha,alpha-dimethyl-p-chlorophenylaceto-N-ethyl-p-bromanilide]
LC50 ([1]; Plutella xylostella, 72 h): 48 µg/mL (≈ 126 µM) | LC50 ([2]; Plutella xylostella, 72 h): 46 µg/mL (≈ 121 µM) | Corrected density index After 3 days ([3]; 250 ppm): 5 | Corrected density index After 7 days ([3]; 250 ppm): 0 | Corrected density index After 14 days ([3]; 250 ppm): 0 | Corrected density index After 1 day ([4]; 250 ppm): 12 | Corrected density index After 3 days ([4]; 250 ppm): 12 | Corrected density index After 7 days ([4]; 250 ppm): 11 | Corrected density index After 1 day ([4]; 500 ppm): 7 | Corrected density index After 3 days ([4]; 500 ppm): 1 | Corrected density index After 7 days ([4]; 500 ppm): 4

CC(C)(C(=O)Nc1ccc(Cl)cc1)c1ccc(F)cc1 [compound 11]
LC50 ([1]; Plutella xylostella, 72 h): 107 µg/mL (≈ 367 µM) | LC50 ([2]; Plutella xylostella, 72 h): 111 µg/mL (≈ 380 µM)

CC(C)(C(=O)Nc1ccc(C(F)(F)F)cc1)c1ccc(F)cc1 [compound 12]
LC50 ([1]; Plutella xylostella, 72 h): 95 µg/mL (≈ 292 µM) | LC50 ([2]; Plutella xylostella, 72 h): 110 µg/mL (≈ 338 µM)

CCN(C(=O)C(C)(C)c1ccc(F)cc1)c1ccc(Cl)cc1 [compound 13]
LC50 ([1]; Plutella xylostella, 72 h): 74 µg/mL (≈ 231 µM) | LC50 ([2]; Plutella xylostella, 72 h): 73 µg/mL (≈ 228 µM)

CCN(C(=O)C(C)(C)c1ccc(F)cc1)c1ccc(Br)cc1 [compound 14]
LC50 ([1]; Plutella xylostella, 72 h): 88 µg/mL (≈ 242 µM) | LC50 ([2]; Plutella xylostella, 72 h): 93 µg/mL (≈ 255 µM)

CC(C)(C(=O)Nc1ccc(Cl)cc1)c1ccc(Br)cc1 [compound 15]
LC50 ([1]; Plutella xylostella, 72 h): 137 µg/mL (≈ 388 µM) | LC50 ([2]; Plutella xylostella, 72 h): 129 µg/mL (≈ 366 µM)

CC(C)(C(=O)Nc1ccc(Cl)cc1)c1ccccc1F [compound 16]
LC50 ([1]; Plutella xylostella, 72 h): 320 µg/mL (≈ 1100 µM) | LC50 ([2]; Plutella xylostella, 72 h): 331 µg/mL (≈ 1130 µM)

CC(C)(C(=O)Nc1ccc(C(F)(F)F)cc1)c1ccccc1F [compound 17]
LC50 ([1]; Plutella xylostella, 72 h): 281 µg/mL (≈ 864 µM) | LC50 ([2]; Plutella xylostella, 72 h): 256 µg/mL (≈ 787 µM)

CN(C(=O)C(C)(C)c1ccccc1F)c1ccc(Cl)cc1 [compound 18]
LC50 ([1]; Plutella xylostella, 72 h): 213 µg/mL (≈ 697 µM) | LC50 ([2]; Plutella xylostella, 72 h): 211 µg/mL (≈ 690 µM)

CC(C)(C(=O)Nc1ccc(Cl)cc1)c1ccc(Cl)cc1Cl [compound 19]
LC50 ([1]; Plutella xylostella, 72 h): 119 µg/mL (≈ 347 µM) | LC50 ([2]; Plutella xylostella, 72 h): 106 µg/mL (≈ 309 µM)

CC(C)(C(=O)Nc1ccc(F)cc1)c1ccc(Cl)cc1Cl [compound 20]
LC50 ([1]; Plutella xylostella, 72 h): 122 µg/mL (≈ 374 µM) | LC50 ([2]; Plutella xylostella, 72 h): 128 µg/mL (≈ 392 µM)
